Consider six compounds from article PMC6325638 (Clinics in liver disease, 2017).

Read-outs that look alike come from different tables or passages of the source.

The test system of series [1] is zebrafish larvae. The settings on record: in vivo.
The subject of a further series is cultured rat hepatocytes. The series is described as follows: ROS induction and death in cultured hepatocytes. The series is classed as cell-based. The settings on record: 96-well plates, oxyethidium fluorescence.
Series [2] concerns zebrafish larvae.
For series [3], the system named is 3D multicellular microphysiological systems (MPS) of the human liver. The settings on record: 3D multicellular microfluidic human liver model; cited from earlier work.
Setting [4] is: 72 hpf zebrafish larvae, 0.66 μM.
Where [5] appears, read: 72 hpf zebrafish larvae, 6.6 μM.
Where [6] appears, read: 72 hpf zebrafish larvae, 200 μM.
Setting [7] is: 72 hpf zebrafish larvae, 0.07 μM.
[8] abbreviates: 72 hpf zebrafish larvae, 0.2 μM.

With `CC1=CC(=O)c2ccccc2C1=O` [Menadione], the “Generation of ROS in zebrafish” value in the series with zebrafish larvae [1] is “time-dependent and dose-dependent generation of ROS”. The “ROS induction and death in cultured hepatocytes” value in the series on cultured rat hepatocytes was “ROS induction and death in cultured hepatocytes”. The “Live/dead (translucent = live, opaque = dead)” value (from here on “Live/dead”) was 4/0 in the series with zebrafish larvae [2] (setting [4]); 4/0 with zebrafish larvae [2] (72 hpf zebrafish larvae, 2 μM); 4/0 with zebrafish larvae [2] (setting [5]); 0/4 in the series on zebrafish larvae [2] (72 hpf zebrafish larvae, 20 μM); 0/4 in the series on zebrafish larvae [2] (72 hpf zebrafish larvae, 66 μM); 0/4 in the series with zebrafish larvae [2] (setting [6]). Moreover, the “Visual toxicity (bent tail, distended peritoneum, edema, pericardial congestion)” value (“Visual toxicity” below) in the series with zebrafish larvae [2] (zebrafish, in vivo, 0.66 μM) is reported as 0/4; in the series on zebrafish larvae [2] (zebrafish, in vivo, 2 μM), 2/4; with zebrafish larvae [2] (zebrafish, in vivo, 6.6 μM), 1/4.
On to `C=C(C)[C@H]1Cc2c(ccc3c2O[C@@H]2COc4cc(OC)c(OC)cc4[C@@H]2C3=O)O1` [Rotenone], for which the “Live/dead” value with zebrafish larvae [2] (setting [7]) is recorded as 4/0; with zebrafish larvae [2] (setting [8]) it was 4/0; in the series on zebrafish larvae [2] (setting [4]), 4/0; in the series with zebrafish larvae [2] (72 hpf zebrafish larvae, 2 μM), 4/0; with zebrafish larvae [2] (72 hpf zebrafish larvae, 20 μM), 1/4. The “Visual toxicity” value in the series on zebrafish larvae [2] (setting [7]) was 2/4; in the series with zebrafish larvae [2] (setting [8]), 3/4; in the series with zebrafish larvae [2] (setting [4]) it was 2/4; in the series on zebrafish larvae [2] (72 hpf zebrafish larvae, 2 μM), 1/4; in the series with zebrafish larvae [2] (setting [5]), 0/3; in the series with zebrafish larvae [2] (72 hpf zebrafish larvae, 20 μM), 1/1.
Consider `CN(Cc1cnc2nc(N)nc(N)c2n1)c1ccc(C(=O)N[C@@H](CCC(=O)O)C(=O)O)cc1` [methotrexate], for which, in series [3], the “Chronic drug effect in human liver MPS” value is reported as “induction of fibrosis”.
In the case of `Cn1c(=O)c2c(ncn2C)n(C)c1=O` [Caffeine], the “Live/dead” value in the series with zebrafish larvae [2] (72 hpf zebrafish larvae, 3 μM) is on record as 4/0; in the series on zebrafish larvae [2] (72 hpf zebrafish larvae, 10 μM) it was 4/0; in the series on zebrafish larvae [2] (72 hpf zebrafish larvae, 30 μM), 4/0; in the series on zebrafish larvae [2] (72 hpf zebrafish larvae, 100 μM) it was 4/0; with zebrafish larvae [2] (72 hpf zebrafish larvae, 300 μM) it was 4/0; in the series with zebrafish larvae [2] (72 hpf zebrafish larvae, 1000 μM), 4/0.
As to `N#CC(C#N)=NNc1cccc(Cl)c1` [CCCP, Carbonyl cyandide m-chorophenyl hydrazone], the “Live/dead” value was 4/0 with zebrafish larvae [2] (setting [7]); 4/0 in the series with zebrafish larvae [2] (setting [8]); 4/0 with zebrafish larvae [2] (setting [4]); 4/0 in the series with zebrafish larvae [2] (72 hpf zebrafish larvae, 2 μM); 4/0 in the series on zebrafish larvae [2] (setting [5]). In addition, the “Visual toxicity” value was 2/4 in the series on zebrafish larvae [2] (setting [7]); 4/4 in the series on zebrafish larvae [2] (setting [8]); 3/4 in the series with zebrafish larvae [2] (setting [4]); 3/4 in the series on zebrafish larvae [2] (72 hpf zebrafish larvae, 2 μM); 2/4 in the series on zebrafish larvae [2] (setting [5]); 0/1 in the series with zebrafish larvae [2] (72 hpf zebrafish larvae, 20 μM).
As for `CCCCc1oc2ccccc2c1C(=O)c1cc(I)c(OCCN(CC)CC)c(I)c1` [Amiodarone], the “Live/dead” value in the series with zebrafish larvae [2] (setting [4]) is reported as 4/0; in the series on zebrafish larvae [2] (72 hpf zebrafish larvae, 2 μM) it was 4/0; in the series on zebrafish larvae [2] (setting [5]), 4/0; in the series with zebrafish larvae [2] (72 hpf zebrafish larvae, 20 μM), 4/0; in the series with zebrafish larvae [2] (72 hpf zebrafish larvae, 66 μM), 0/4; in the series on zebrafish larvae [2] (setting [6]), 0/4.
